Results reported in patent US10137162B1, “Gastroprotective extracts of Sonchus oleraceus L” (KING SAUD UNIVERSITY, priority 2018, dated 2018).

Key:
[1] = test system: absolute ethanol-induced ulcer; assay: absolute ethanol-induced ulcer model (gastroprotective activity); type: in vivo, Male Wistar rats; settings: 20 mg/kg oral
Protocol: The absolute ethanol-induced ulcer model was used for evaluation of gastroprotective activity. Groups of 6 Male Wistar rats were used. Treated groups received either total alcohol extracts (SA or SR) at doses of about 250 mg/kg or about 500 mg/kg. […] A treatment group received Omeprazole (about 20 mg/kg) and a control group received water (about 5 mL/kg). All treatments were administered orally to all groups. […] After one hour all rats were sacrificed, the stomachs were rapidly removed, opened along their greater curvature, and gently rinsed under running tap water. The number and severity of ulcers were visually counted and the ulcer index was calculated. Ulcer indices (mm) were calculated as the sum of the total length of long ulcers and petechial lesions in each group of rats divided by its number. Percent protection was determined according to the following formula: [formula] All values were expressed as mean+S.D. Comparisons between means were carried out using a one-way ANOVA test followed by the Tukey HSD test using SPSS, version 14 (SPSS, Chicago, Ill.). Differences at p<0.05 were considered statistically significant.

[2] = test system: ulcerative colitis induced by acetic acid; assay: acetic acid-induced ulcerative colitis; type: in vivo, Male Wistar rats; settings: 0.1 mg/kg oral once daily, 5 days
Protocol: All medications were administered orally, once daily for 5 consecutive days and the first dose was administered about 2 h after ulcerative colitis induction by about 2 mL (4%, v/v) acetic acid in saline. Ulcer indices (mm) were calculated as the sum of the total length of long ulcers and petechial lesions in each group of rats divided by its number. All values were expressed as mean+S.D. Comparisons between means were carried out using a one-way ANOVA test followed by the Tukey HSD test using SPSS, version 14 (SPSS, Chicago, Ill.). Differences at p<0.05 were considered statistically significant.

Compound | Score ([1]; 30 min before ethanol) | % protection ([1]; ethanol-induced ulcer) | % protection [2]
COc1ccc2[nH]c([S+]([O-])Cc3ncc(C)c(OC)c3C)nc2c1 (stereo not drawn) [Omeprazole] | 2.50 | 45.83% | –
C[C@@H]1C[C@H]2[C@@H]3CCC4=CC(=O)C=C[C@]4(C)[C@@]3(F)[C@@H](O)C[C@]2(C)[C@@]1(O)C(=O)CO [Dexamethasone, dexamethasone] | – | – | 66.36%
